Assay results reported in patent US11230542B2, “Inhibitors of integrated stress response pathway” (Praxis Biotech LLC, priority 2017, dated 2022).
Like-named read-outs stand apart in the source and are kept apart here.

Experiments:
[1] = system: hippocampal slices from transgenic APP/PS1 mice; test: Electrophysiology and long-term potentiation in hippocampal slices; details: slices from APP/PS1 mouse, 5 μM, 60 min after theta burst stimulation
Experimental: Hippocampal slices were prepared as described in Ardiles et al., Pannexin 1 regulates bidirectional hippocampal synaptic plasticity in adult mice. Front Cell Neurosci, vol. 8, art. 326 (2014). Six to eleven-month-old WT C57BL/6 or transgenic APP/PS1 mice (Jackson Lab 34829-JAX) were deeply anesthetized with isoflurane and their brains were quickly removed. 5-10 slices (350 μm) from each animal were dissected in ice-cold dissection buffer using a vibratome (Leica VT1200S, Leica Microsystems, Nussloch, Germany). Slices were incubated with 5 μM ISRIB, 5 μM compound 3, 1 μM compound 152, or a vehicle (complete medium containing 0.1% DMSO) 20 min before conditioning stimulation. Synaptic responses were evoked by stimulating the Schaffer collaterals with 0.2 ms pulses delivered through concentric bipolar stimulating electrodes, and recorded extracellularly in the stratum radiatum of the CA1 subfield. Long-term potentiation (LTP) was induced by four-theta burst stimulation (TBS) (10 trains of four pulses at 100 Hz; 5 Hz inter-burst interval) delivered at 0.1 Hz. LTP magnitude based on field excitatory postsynaptic potential (fEPSP) was calculated as the average (normalized to baseline) of the responses recorded 60 min after conditioning stimulation. Similar experiments can be performed using a different test compound in place of ISRIB, compound 3, or compound 152.

[2] = system: ATF4; test: ATF4 expression inhibition assay (thapsigargin-stressed HEK293T cells, western blot); format: cell-based; details: Homo sapiens, HEK-293T; for IC50: 3 h with 100 nM Tg, test compound 1 nM to 1 μM; for inhibition at 0.1 µM: 3 h with 100 nM thapsigargin (Tg) and 100 nM test compound; for inhibition at 0.1 µM / inhibition at 1 µM: Tg alone 0%, untreated 100%; for inhibition at 1 µM: 3 h with 100 nM thapsigargin (Tg) and 1 μM test compound
How it was run: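 HEK293T cells treated with thapsigargin (Tg) plus test compound (100 nM or 1 μM) for 3 hours, then lysed; ATF4 measured by western blot with ECL and densitometry. % inhibition normalized to Tg alone (0%) and untreated cells (100%); IC50 also calculated.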

[3] = system: CHO cells; test: Protein translation assay (puromycin incorporation in CHO cells, unstressed or Tg-stressed); format: cell-based, Chinese hamster; details: Cricetulus griseus, media alone 100%; for activity at 0.1 µM: read-out: % Recovery of protein expression (100 nM test compound)
How it was run: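 CHO cells pretreated 2 h with 1 μM compound (unstressed), or 1 h with 100 nM or 1 μM then co-treated with 300 nM Tg. Pulse-labelled with 10 μg/ml puromycin for 30 min, then anti-puromycin western blot with densitometry. Unstressed values normalized to media alone (100%); stressed recovery scaled between media alone (100%) and Tg alone (0%).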

[4] = system: fasted Balb/c mice; test: Fasting-induced muscle atrophy; format: in vivo, mouse
Experimental: Wild type eight-weeks-old male Balb/c mice obtained from the vivarium Fundacion Ciencia & Vida Chile (Santiago, Chile) were used. Mice were housed in independent plastic cages in a room maintained at 25° C. with a 12-h:12-h light:dark cycle.
Twenty-four hours before and during the 2 days of fasted procedures, animals received oral administration via feeding tubes (15 gauge) of vehicle (50% Polyethylene glycol 400 (Sigma-Aldrich P3265) in distilled water or 10 mg/kg of compound 3 formulated in vehicle solution.
After 2 days of fasting the animals were sacrificed and muscles were removed from both hindlimbs. Mice with feed and water ad libitum were used as control.
For in vivo measurements of protein synthesis, puromycin (Sigma-Aldrich, P8833) was prepared at 0.04 μmol/g body weight in a volume of 200 μL of PBS, and subsequently administered into the animals via IP injection, 30 min prior to muscle collection.
Upon collection, muscles were immediately frozen in liquid nitrogen and then stored at −80° C. […] Protein concentration in supernatants was determined using BCA Protein Assay Kit (Pierce). […]
Puromycin (12D10) (Merck Millipore) and β-actin (Sigma-Aldrich) antibodies were used as primary antibodies. […] Quantification of protein bands was done by densitometry using ImageJ software. […]

[5] = CHO cells stressed with 300 nM Tg, Tg alone 0%
[6] = CHO cells stressed with 300 nM Tg, Tg alone 0%, read-out: % Recovery of protein expression (1 μM test compound)
[7] = unstressed CHO cells, 2 h, read-out: % Protein expression relative to untreated (1 μM test compound)

SMILES	long-term potentiation (LTP), fEPSP [1]	IC50 [2]	inhibition at 0.1 µM [2]	inhibition at 1 µM [2]	activity at 0.1 µM [3, 5]	activity at 1 µM [3, 6]	activity at 1 µM [3, 7]	ATF4 staining in muscle fiber CSA [4]
O=C(COc1ccc(Cl)cc1)NC1CCC(NC(=O)COc2ccc(Cl)cc2)CC1 (centres unmarked) [ISRIB]	partial LTP recovery	–	–	–	–	–	–	–
O=C(COc1ccc(Cl)c(F)c1)N[C@H]1CC[C@H](NC(=O)c2cc3cc(Cl)ccc3o2)CC1 [Compound 17, trans-5-chloro-N-(4-(2-(4-chloro-3-fluorophenoxy)acetamido)cyclohexyl)benzofuran-2-carboxamide]	–	9.52 nM	95%	98%	87%	172%	93.2%	–
O=C(COc1ccc(Cl)cc1)NC1CCN(CC(O)COc2ccc(Cl)cc2)CC1 (single isomer, unassigned; (-)) [Compound 15, (−)-2-(4-chlorophenoxy)-N-(1-(3-(4-chlorophenoxy)-2-hydroxypropyl)piperidin-4-yl)acetamide]	–	52.1 nM	77%	99%	35.6%	159%	68.3%	–
O=C(NC1CCN(C[C@H](O)COc2ccc(Cl)c(F)c2)CC1)c1ccc2cc(Cl)ccc2n1 (single isomer, unassigned) [Compound 152, (+)-6-chloro-N-(1-(3-(4-chloro-3-fluorophenoxy)-2-hydroxypropyl)piperidin-4-yl)quinoline-2-carboxamide]	–	49 nM	86%	91%	99.1%	280%	239%	No staining was detected
